Results from patent US20050080247A1, “Leinamycin biosynthesis gene cluster and its components and their uses” (priority 2001, published 2005).
Where two headings read alike, the source gives them in different places.

Legend:
[1] = test system: S. atroolivaceus; test: Antibiotic sensitivity (growth inhibition) of S. atroolivaceus; format: cell-based, Streptomyces atroolivaceus; settings: for complete inhibition of growth: concentration giving complete inhibition of growth of S. atroolivaceus; for sensitivity of S. atroolivaceus: result in words
Description: S. atroolivaceus grows very well at 30° C.; it doesn't grow at temperature beyond 35° C. […] Thus, E. coli-Streptornyces shuttle vectors pOJ260 (suicide vector, Am^R) and pKC1139 (self-replicating vector, Am^R) were chosen to make the gene-disruption constructs pYC12 and pYC20, respectively. The concentration of antibiotic (Am) for selection of transformants/exconjugates is 50 μg/ml.

[2] = cited from earlier work; for t1/2: aqueous condition
[3] = test system: murine tumor models (HeLa S3, sarcoma180, B-16, Colon 26, leukemia P388); settings: cited from earlier work
[4] = test system: DNA; settings: in the presence of thiol agents as cofactors; cited from earlier work
[5] = test system: Gram-positive and Gram-negative bacteria; settings: cited from earlier work
[6] = test system: fungi; settings: cited from earlier work

Row | SMILES | complete inhibition of growth [1] | sensitivity of S. atroolivaceus [1] | t1/2 ([2]; pH 6) | t1/2 ([2]; pH 7) | t1/2 ([2]; pH 8) | t1/2 in the presence of a thiol ([2]; in the presence of a thiol, compared with aqueous condition alone) | activity against drug-resistant tumors ([3]; murine models inoculated with tumors resistant to cisplatin, doxorubicin, mitomycin or cyclophosphamide) | antitumor activity ([3]; murine tumor models in vivo, including HeLa S3, sarcoma180, B-16, Colon 26, leukemia P388) | DNA cleavage [4] | antimicrobial activity [5] | antimicrobial activity [6]
1 | C=C(NC(=O)C(=C)NC(=O)c1csc(C2=N[C@@H]3c4csc(n4)[C@H]4NC(=O)c5csc(n5)[C@H]([C@](C)(O)[C@@H](C)O)NC(=O)[C@H]5CSC(=N5)/C(=C/C)NC(=O)[C@H]([C@@H](C)O)NC(=O)c5csc(n5)[C@]3(CC2)NC(=O)[C@H](C)NC(=O)C(=C)NC(=O)[C@H](C)NC(=O)[C@H]([C@@H](C)CC)N[C@@H]2C=Cc3c([C@H](C)O)cc(nc3[C@H]2O)C(=O)O[C@@H]4C)n1)C(N)=O [thiostrepton] | 3 µg/mL | sensitive |  |  |  |  |  |  |  |  | 
2 | CN[C@@H]1[C@@H](O[C@H]2O[C@H](CO)[C@@H](N)[C@H](O)[C@H]2O)OC2C[C@@H](N)[C@@H](O[C@H]3[C@H](O)[C@@H](O)[C@H](N)C[C@@H]3N)OC2[C@@H]1O (stereo partly shown) [apramycin] | 10 µg/mL | sensitive |  |  |  |  |  |  |  |  | 
3 | C/C1=C\[C@@H](O)C(=O)/C=C/C=C\c2csc(n2)[C@@H](C)NC(=O)C[C@@]2(CC1)[S+]([O-])SC(=O)[C@]2(C)O (stereo partly shown) [Lnm, Leinamycin] |  |  | > 20 h | 8 h | < 1 h | even shorter t1/2 | active | potent antitumor activity | single-strand scission of DNA | broad spectrum of antimicrobial activity | not against fungi
